Results as given in patent US20070037253A1, “Methods and compositions for treatment of arthritis and cancer” (priority 2003, published 2007).
Where a SMILES comes first, the peptide text is derived from it.

Molecular target: T1, MMP-2 (Oryctolagus cuniculus, UniProt P50757)
T1 construct: endogenous in cells; host or cells: HIG-82 rabbit synoviocytes (ATCC CRL-1832), IL-1β-induced, culture supernatant
T1 sequence (P50757 110-662): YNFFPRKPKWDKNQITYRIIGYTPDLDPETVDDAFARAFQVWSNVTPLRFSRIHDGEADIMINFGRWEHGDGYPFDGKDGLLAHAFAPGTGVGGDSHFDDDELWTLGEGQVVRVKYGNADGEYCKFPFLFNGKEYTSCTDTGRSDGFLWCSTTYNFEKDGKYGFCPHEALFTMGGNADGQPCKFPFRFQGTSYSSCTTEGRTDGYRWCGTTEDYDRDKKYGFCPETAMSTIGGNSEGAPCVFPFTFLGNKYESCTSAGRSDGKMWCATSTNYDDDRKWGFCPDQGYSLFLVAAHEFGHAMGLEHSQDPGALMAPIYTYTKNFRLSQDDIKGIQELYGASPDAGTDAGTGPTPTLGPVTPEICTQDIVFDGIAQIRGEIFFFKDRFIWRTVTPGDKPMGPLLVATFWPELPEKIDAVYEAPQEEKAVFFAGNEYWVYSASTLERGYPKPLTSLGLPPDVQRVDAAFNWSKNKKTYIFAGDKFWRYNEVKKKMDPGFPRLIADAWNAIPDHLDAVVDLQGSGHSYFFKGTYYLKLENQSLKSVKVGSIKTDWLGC
Assay: Gelatin zymography of HIG-82 culture supernatant pre-incubated with inhibitors (FIG. 4A)
Format: biochemical, rabbit
Settings: APMA-activated HIG-82 supernatant, 5 μM peptide, 1 h at 25° C.
Description: Gelatinase activity in the supernatants from cells induced with IL-1β (5 ng) for 48 h was analyzed by gelatin zymography. (A) Supernatants (activated with final 1 mM APMA at 30° C. for 30 min) were pre-incubated with various inhibitors. (5 μM peptides or 1-2 μM Calbiochem MMP inhibitor II) for 1 h at 25° C. prior to zymographic analyses—Lane 1, without activation (no inhibitor); Lane 2, with activation (no inhibitor); Lanes 3-8, with activation plus inhibitor: 3, P-NT-II; 4, PIP [59-67] monomer; 5, PIP [57-67] dimer; 6, PIP [59-67] dimer; 7 and 8, positive control MMP Inhibitor II (Calbiochem) at 1 and 2 μM concentrations. (B) Rabbit synovial fibroblasts were stimulated by IL-1β in the presence or absence of 1-10 μM of PIP [59-67] dimer for 48 h. Culture supernatants were concentrated by centrifugation (Centricon centrifugal filter devices, M.W. cutoff 30,000) and activated with APMA (1 mM final) before measurement of gelatinase activity by gelatin zymography. Lanes: 1 (−peptide−APMA); 2 (−peptide+APMA); 3 (+1 μM peptide+APMA); 4 (+5 μM peptide+APMA); 5 (+7.5 μM peptide+APMA); 6 (+10 μM peptide+APMA). […]

CC[C@H](C)[C@H](NC(=O)[C@H](CC(=O)O)NC(=O)[C@@H](N)C(C)C)C(=O)N[C@@H](Cc1c[nH]cn1)C(=O)N[C@H](C(=O)N[C@@H](Cc1c[nH]c2ccccc12)C(=O)N[C@@H](CC(=O)O)C(=O)NCC(=O)N[C@H](C(=O)N[C@H](C(=O)N[C@@H](CC(=O)O)C(=O)N[C@H](C(=O)N[C@@H](Cc1c[nH]cn1)C(=O)N[C@H](C(=O)N[C@@H](Cc1c[nH]c2ccccc12)C(=O)N[C@@H](CC(=O)O)C(=O)NCC(=O)N[C@H](C(=O)O)C(C)C)C(C)C)[C@@H](C)CC)C(C)C)C(C)C)C(C)C [PIP [59-67] dimer] (H-VDIHVWDGVVDIHVWDGV-OH; N-terminus and C-terminus assumed)
MMP-2 gelatinase activity vs control: insignificant
